Source: patent US10308595B2, “Albicidin derivatives, their use and synthesis” (priority 2013, dated 2019)
Like-named read-outs stand apart in the source and are kept apart here.

Experiments:
Format in all cases: cell-based
[1] = test system: Escherichia coli DH5α; experiment: Test agar plates (disc diffusion), diameter of inhibition area; conditions: 18 h, read-out: diameter of inhibition, Escherichia coli DH5α
Protocol: (§1) The dry compounds were dissolved in DMSO (1 mg/ml) and the so obtained stock solution was diluted with sterilized Millipore water 1:10 and 1:100
(§2) 20 μl of cryo stock of each strain were inoculated to 20 ml of Mueller-Hinton medium and grown overnight at 30° C. or 37° C. on a vertical shaker with 160 rpm. The inoculum for the test was adjusted by the 0.5 McFarland Standard (OD625 from 0.08 to 0.1)
Escherichia coli DH5α [gram. Neg.] Medium: MHB/37° C.
(§3) Every plate is prepared by pouring 10 ml Mueller-Hinton agar into standard petri dishes (diam 94 mm). The so obtained Mueller-Hinton plates are overlayed with 4 ml Mueller-Hinton soft agar containing 100 μl suspension of the test strain.
(§4) After the soft agar turned solid, sterile susceptibility test discs were circular placed on the agar and on every test disc 10 μl compound was added. Each concentration is tested in triplicate. The agar dishes were incubated for 18 hours at a temperature of 30° C. or 37° C. Results are obtained by measuring the diameter of inhibition area around each test disc.

[2] = test system: Micrococcus luteus DSM1790; experiment: as above; conditions: Micrococcus luteus, DSM1790, 18 h, read-out: diameter of inhibition, Micrococcus luteus DSM1790
Protocol: as §1, §2
Micrococcus luteus DSM1790 [gram. Pos.] Medium: MHB/37° C.
as §3, §4

[3] = test system: Staphylococcus aureus DSM 2569; experiment: as above; conditions: DSM2569, 18 h, read-out: diameter of inhibition, Staphylococcus aureus DSM 2569
Protocol: as §1, §2
Staphylococcus aureus DSM 2569 [gram. Pos.] Medium: MHB/37° C.
as §3, §4

[4] = test system: Staphylococcus aureus (ATCC 29213); experiment: EN-ISO standard test (ISO 20776-1), MIC
Protocol: (§5) Furthermore, compounds were tested against the following bacteria
(§6) according to EN-ISO standard (ISO 20776-1: 2006. Clinical laboratory testing and in vitro diagnostic test systems—Susceptibility testing of infectious agents and evaluation of performance of antimicrobial susceptibility test devices—Part 1:Reference method for testing the in vitro activity of antimicrobial agents against rapidly growing aerobic bacteria involved in infectious diseases; German version EN ISO 20776-1:2006. Beuth-Verlag, Berlin).

[5] = test system: Escherichia coli (ATCC 25922, 100-2-49 and 100-2-56); experiment: EN-ISO standard test (ISO 20776-1), MIC
Protocol: as §5, §6

[6] = test system: Staphylococcus aureus (PEG 10-38-22); experiment: EN-ISO standard test (ISO 20776-1), MIC
Protocol: as §5, §6

[7] = test system: Bacillus subtilis DSM10; experiment: Test agar plates (disc diffusion), diameter of inhibition area; conditions: Bacillus subtilis, DSM10, 18 h, read-out: diameter of inhibition, Bacillus subtilis DSM10
Protocol: as §1, §2
Bacillus subtilis DSM10 [gram. Pos.] Medium: MHB/30° C.
as §3, §4

[8] = test system: Pseudomonas aeruginosa DSM1117; experiment: as above; conditions: DSM1117, 18 h, read-out: diameter of inhibition, Pseudomonas aeruginosa DSM1117
Protocol: as §1, §2
Pseudomonas aeruginosa DSM1117 [gram. Neg.] Medium: MHB/37° C.
as §3, §4

[9] = test system: Salmonella enteritidis (PEG-10-3-58); experiment: EN-ISO standard test (ISO 20776-1), MIC
Protocol: as §5
Salmonella enteritidis (PEG-10-3-58),
as §6

[10] = test system: Escherichia coli albi-res (Montpellier); experiment: Test agar plates (disc diffusion), diameter of inhibition area; conditions: 18 h, read-out: diameter of inhibition, Escherichia coli albi-res (Montpellier)
Protocol: as §1, §2
Escherichia coli albi-res (Montpellier) [gram. Neg.] Medium: MHB/37° C.
as §3, §4

[11] = test system: Pseudomonas aeruginosa (PEG-10-2-61); experiment: EN-ISO standard test (ISO 20776-1), MIC
Protocol: as §5
(§7) Pseudomonas aeruginosa (ATCC 27853 and PEG-10-2-61)
as §6

[12] = test system: Pseudomonas aeruginosa (ATCC 27853); experiment: EN-ISO standard test (ISO 20776-1), MIC
Protocol: as §5, §7, §6

[13] = test agar plates, active substance 1 mg/ml, more than 1 cm or more than 2 cm
[14] = test agar plates, active substance 1 mg/ml, "more than 1 cm and more than 2 cm" [sic]
[15] = test agar plates, active substance 1 mg/ml, more than 1 cm or more than 3.9 cm [sic]

SMILES	zone of inhibition at 1000 µg/mL [1, 13]	zone of inhibition at 1000 µg/mL [2, 14]	zone of inhibition at 1000 µg/mL [3, 14]	MIC values, in words [4]	MIC values (minimal inhibitory concentration), in words [5]	MIC values, in words [6]	zone of inhibition at 1000 µg/mL [7, 15]	zone of inhibition at 1000 µg/mL [8, 13]	MIC values, in words [9]	zone of inhibition at 1000 µg/mL [10, 13]	MIC values, in words [11]	MIC values, in words [12]	zone of inhibition at 1000 µg/mL [1]	zone of inhibition at 1000 µg/mL [2]	zone of inhibition at 1000 µg/mL [3]	zone of inhibition at 1000 µg/mL [7]	zone of inhibition at 1000 µg/mL [8]	zone of inhibition at 1000 µg/mL [10]
COc1c(NC(=O)c2ccc(NC(=O)c3ccc(NC(=O)C(CC#N)NC(=O)c4ccc(NC(=O)/C=C/c5ccc6c(c5)OCO6)cc4)cc3)c(OC)c2O)ccc(C(=O)O)c1O (stereo not shown) [Compound 5]	> 10 mm	> 10 mm	> 10 mm	good to very good	good to very good	good to very good	> 10 mm	> 10 mm	good to very good	> 10 mm	good to very good	good to very good	–	–	–	–	–	–
COc1c(NC(=O)c2ccc(NC(=O)c3ccc(NC(=O)C(CC#N)NC(=O)c4ccc(NC(=O)COc5ccccc5)cc4)cc3)c(OC)c2O)ccc(C(=O)O)c1O (stereo not shown) [Compound 30]	–	–	–	good to very good	good to very good	–	–	–	good to very good	–	–	good to very good	> 10 mm	> 10 mm	> 10 mm	> 10 mm	> 10 mm	> 10 mm
COc1c(NC(=O)c2ccc(NC(=O)c3ccc(NC(=O)C(CC#N)NC(=O)c4ccc(NC(=O)C5C6CC7CC(C6)CC5C7)cc4)cc3)c(OC)c2O)ccc(C(=O)O)c1O (stereo not shown) [Compound 36]	> 10 mm	> 10 mm	> 10 mm	good to very good	good to very good	good to very good	> 10 mm	> 10 mm	good to very good	–	good to very good	good to very good	–	–	–	–	–	> 10 mm
COc1c(NC(=O)c2ccc(NC(=O)c3ccc(NC(=O)C(CC#N)NC(=O)c4ccc(NC(=O)/C(C)=C/c5ccc(F)cc5)cc4)cc3)c(OC)c2O)ccc(C(=O)O)c1O (stereo not shown) [Compound 1]	> 10 mm	> 10 mm	> 10 mm	good to very good	good to very good	good to very good	> 10 mm	> 10 mm	good to very good	> 10 mm	good to very good	good to very good	–	–	–	–	–	–
COc1c(NC(=O)c2ccc(NC(=O)c3ccc(NC(=O)C(CC#N)NC(=O)c4ccc(NC(=O)c5cscn5)cc4)cc3)c(OC)c2O)ccc(C(=O)O)c1O (stereo not shown) [Compound 16]	> 10 mm	> 10 mm	> 10 mm	–	good to very good	–	> 10 mm	–	good to very good	> 10 mm	–	–	–	–	–	–	–	–
COc1c(NC(=O)c2ccc(NC(=O)c3ccc(NC(=O)C(CC#N)NC(=O)c4ccc(NC(=O)C5CCCCC5)cc4)cc3)c(OC)c2O)ccc(C(=O)O)c1O (stereo not shown) [Compound 35]	> 10 mm	–	> 10 mm	–	good to very good	–	> 10 mm	> 10 mm	good to very good	–	–	good to very good	–	–	–	–	–	> 10 mm
